The text below walks through data of publication PMC3940079 (International Journal for Parasitology: Drugs and Drug …, 2013).

Test [1] concerns the target T1, P2 aminopurine transporter (TbAT1) (Trypanosoma brucei, UniProt Q9Y0I0).
T1 sequence (Q9Y0I0 1-463): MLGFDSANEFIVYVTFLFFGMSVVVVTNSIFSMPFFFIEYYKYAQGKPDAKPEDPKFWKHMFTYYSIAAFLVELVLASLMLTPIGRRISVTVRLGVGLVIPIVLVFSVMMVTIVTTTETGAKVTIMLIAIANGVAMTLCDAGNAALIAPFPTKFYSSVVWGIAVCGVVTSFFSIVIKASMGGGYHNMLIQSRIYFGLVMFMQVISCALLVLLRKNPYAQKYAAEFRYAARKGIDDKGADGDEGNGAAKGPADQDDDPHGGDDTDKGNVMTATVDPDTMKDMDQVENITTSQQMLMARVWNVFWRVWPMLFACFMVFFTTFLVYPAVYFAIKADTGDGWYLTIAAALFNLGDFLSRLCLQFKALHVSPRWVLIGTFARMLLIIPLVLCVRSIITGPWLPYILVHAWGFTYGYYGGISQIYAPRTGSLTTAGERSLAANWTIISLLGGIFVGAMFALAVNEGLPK
The experiment in a line: inhibition of […] [3H]-adenosine uptake. Type of test: cell-based.

The target in test [2] is H3 nucleobase transporter. The experiment in a line: inhibition of […] [3H]-hypoxanthine uptake in bloodstream-form trypanosomes. In kind it is cell-based, Trypanosoma brucei brucei.
Test [3] addresses H2 nucleobase transporter. The test is described as above. In kind it is cell-based, Trypanosoma brucei brucei.

In general, Ki refers to a measure of affinity in units of concentration, obtained from inhibition or displacement. Read a low Ki as tighter binding. Consider `Nc1ncnc2n[nH]cc12` [aminopurinol], for which the Ki is 75.3 ± 5.7 µM in test [1], 105 ± 24 µM in test [2] and 230 ± 35 µM in test [3].
